Data published in patent publication EP2257297B1, “COMPOUNDS FOR USE IN THE TREATMENT OF ACNE, SEBORRHOEA AND SEBHORROEIC DERMATITIS, OR FOR REDUCING SEBUM SECRETION” (priority 2008, dated 2009).

Each compound was assayed against T1, human MC5R (Homo sapiens, UniProt P33032) (assay: Human MC5R radioligand binding assay ([125I] NDP-MSH displacement, hMC5R membranes)). Conditions: not given.
T1 construct: purchased Perkin Elmer RBXMC5M400UA
Procedure, shortened: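 Bound ligand collected by filtration on PEI-soaked GF/A filters and counted. Data fitted to a single-site competition model with fixed Hill coefficient to give EC50.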

T1 sequence (P33032 whole entry): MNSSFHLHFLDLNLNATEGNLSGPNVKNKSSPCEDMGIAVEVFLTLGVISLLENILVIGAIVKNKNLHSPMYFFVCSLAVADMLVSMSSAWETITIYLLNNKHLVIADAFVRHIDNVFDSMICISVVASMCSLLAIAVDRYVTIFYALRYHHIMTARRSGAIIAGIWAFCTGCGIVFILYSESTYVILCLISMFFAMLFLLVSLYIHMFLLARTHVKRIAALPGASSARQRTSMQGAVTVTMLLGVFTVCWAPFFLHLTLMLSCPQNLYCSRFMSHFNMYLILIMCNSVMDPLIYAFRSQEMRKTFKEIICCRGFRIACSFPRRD

Structure (SMILES) | IC50
CC[C@H](CN1CC[C@@H](CNC(=O)c2ccc3cc(Cl)ccc3c2)N[C@@H](CC(C)(C)N2CCCCC2)C1=O)c1ccccc1 (racemic) [Compound 499, 6-chloro-N-(((3S,5S)-3-(2-methyl-2-(piperidin-1-yl)propyl)-2-oxo-1-((S)-2-phenylbutyl)-1,4-diazepan-5-yl)methyl)-2-naphthamide] | < 100 nM
CC[C@H](CN1CC[C@H](CNC(=O)c2ccc3cc(Cl)ccc3c2)N[C@H](CC(C)(C)N2CCCCC2)C1=O)c1ccccc1 (racemic) [Compound 500, 6-chloro-N-(((3R,5R)-3-(2-methyl-2-(piperidin-1-yl)propyl)-2-oxo-1-((S)-2-phenylbutyl)-1,4-diazepan-5-yl)methyl)-2-naphthamide] | < 100 nM

Same assay, conditions: hMC5R assay as in Example 102; compounds tested as trifluoroacetate or hydrochloride salts, or as free base

IC50 | Structure (SMILES)
< 100 nM | CCN(CC)CC[C@@H]1N[C@H](CNC(=O)/C=C/c2ccc(Cl)cc2)CCN(CC(c2ccccc2)c2ccccc2)C1=O [Compound 378, (E)-3-(4-chlorophenyl)-N-(((3S,5S)-3-(2-(diethylamino)ethyl)-1-(2,2-diphenylethyl)-2-oxo-1,4-diazepan-5-yl)methyl)acrylamide]
< 10 nM | O=C(/C=C/c1ccc(Cl)cc1)NC[C@@H]1CCN(CC(c2ccccc2)c2ccccc2)C(=O)[C@H](CN2CCCCC2)N1 [Compound 279, (E)-3-(4-chlorophenyl)-N-(((3S,5S)-1-(2,2-diphenylethyl)-2-oxo-3-(piperidin-1-ylmethyl)-1,4-diazepan-5-yl)methyl)acrylamide]
< 1000 nM | O=C(NCC[C@@H]1CCN(CC(c2ccccc2)c2ccccc2)C(=O)[C@H](CCN2CCCCC2)N1)c1ccc(Cl)c(Cl)c1 [Compound 312, 3,4-dichloro-N-(2-((3S,5R)-1-(2,2-diphenylethyl)-2-oxo-3-(2-(piperidin-1-yl)ethyl)-1,4-diazepan-5-yl)ethyl)benzamide]
< 10000 nM | NCC[C@@H]1N[C@H](CCNC(=O)c2ccccc2)CCN(CC(c2ccccc2)c2ccccc2)C1=O [Compound 308, N-(2-((3S,5R)-1-(2,2-diphenylethyl)-2-oxo-3-(2-aminoethyl)-1,4-diazepan-5-yl)ethyl)benzamide]
< 100 nM | NCCC[C@@H]1N[C@H](CNC(=O)/C=C/c2ccc(F)cc2F)CCN(CC(c2ccccc2)c2ccccc2)C1=O [Compound 233, (E)-N-(((3S,5S)-3-(3-aminopropyl)-1-(2,2-diphenylethyl)-2-oxo-1,4-diazepan-5-yl)methyl)-3-(2,4-difluorophenyl)acrylamide]
< 1000 nM | CCC(CN1CC[C@@H](CNC(=O)c2ccc(Cl)c(Cl)c2)N[C@@H](CCN)C1=O)c1ccccc1 (stereo partly drawn) [Compound 369, N-(((3S,5S)-3-(2-aminoethyl)-2-oxo-1-(2-phenylbutyl)-1,4-diazepan-5-yl)methyl)-3,4-dichlorobenzamide]
< 1000 nM | O=C(/C=C/c1ccc(Cl)cc1)NC[C@@H]1CCN(CC(c2ccccc2)c2ccccc2)C(=O)[C@H](CCNC(=O)C2CCCCC2)N1 [Compound 306, N-(2-((2S,7S)-7-(((E)-3-(4-chlorophenyl)acrylamido)methyl)-4-(2,2-diphenylethyl)-3-oxo-1,4-diazepan-2-yl)ethyl)cyclohexanecarboxamide]
< 10000 nM | CCC(CC)CN1CC[C@@H](CNC(=O)c2ccc(C)c(Cl)c2)N[C@@H](CCN)C1=O [Compound 354, N-(((3S,5S)-3-(2-aminoethyl)-1-(2-ethylbutyl)-2-oxo-1,4-diazepan-5-yl)methyl)-3-chloro-4-methylbenzamide]
< 100 nM | CCC(CN1CCC(CNC(=O)c2ccc3cc(Cl)ccc3c2)N[C@@H](C2CCNCC2)C1=O)c1ccccc1 (stereo partly drawn) [Compound 472, (S)-6-chloro-N-((2-oxo-1-(2-phenylbutyl)-3-(piperidin-4-yl)-1,4-diazepan-5-yl)methyl)-2-naphthamide]
< 1000 nM | NC(=O)CC[C@@H]1N[C@H](CNC(=O)/C=C/c2ccc(Cl)cc2)CCN(CC(c2ccccc2)c2ccccc2)C1=O [Compound 298, (E)-N-(((3S,5S)-3-(3-amino-3-oxopropyl)-1-(2,2-diphenylethyl)-2-oxo-1,4-diazepan-5-yl)methyl)-3-(4-chlorophenyl)acrylamide]

Continued, compound first:

Structure (SMILES) | IC50
N=C(N)NCCC[C@@H]1N[C@H](CNC(=O)/C=C/c2ccc(C(F)(F)F)cc2)CCN(CC(c2ccccc2)c2ccccc2)C1=O [Compound 200, (E)-N-(((3S,5S)-1-(2,2-diphenylethyl)-3-(3-guanidinopropyl)-2-oxo-1,4-diazepan-5-yl)methyl)-3-(4-(trifluoromethyl)phenyl)acrylamide] | < 100 nM
NCCC[C@@H]1N[C@H](CNC(=O)c2ccc(Cl)c(Cl)c2)CCN(CC(c2ccccc2)c2ccccc2)C1=O [Compound 224, N-(((3S,5S)-3-(3-aminopropyl)-1-(2,2-diphenylethyl)-2-oxo-1,4-diazepan-5-yl)methyl)-3,4-dichlorobenzamide] | < 100 nM
N=C(N)NCCC[C@@H]1N[C@H](CNC(=O)c2ccc3cc(Br)ccc3c2)CCN(CC(c2ccccc2)c2ccccc2)C1=O [Compound 181, 6-bromo-N-(((3S,5S)-1-(2,2-diphenylethyl)-3-(3-guanidinopropyl)-2-oxo-1,4-diazepan-5-yl)methyl)-2-naphthamide] | < 10 nM
N=C(N)NCCC[C@@H]1N[C@H](CNC(=O)C2CCc3ccccc3C2)CCN(CC(c2ccccc2)c2ccccc2)C1=O (stereo partly drawn) [Compound 111, N-(((3S,5S)-1-(2,2-diphenylethyl)-3-(3-guanidinopropyl)-2-oxo-1,4-diazepan-5-yl)methyl)-1,2,3,4-tetrahydronaphthalene-2-carboxamide] | < 100 nM
N=C(N)NCCC[C@@H]1N[C@H](CNC(=O)c2ccc3cc(N)ccc3c2)CCN(CC(c2ccccc2)c2ccccc2)C1=O [Compound 218, 6-amino-N-(((3S,5S)-1-(2,2-diphenylethyl)-3-(3-guanidinopropyl)-2-oxo-1,4-diazepan-5-yl)methyl)-2-naphthamide] | < 10000 nM
N=C(N)NCCC[C@@H]1N[C@H](CNC(=O)Cc2ccc(Cl)c(Cl)c2)CCN(CC(c2ccccc2)c2ccccc2)C1=O [Compound 157, 2-(3,4-dichlorophenyl)-N-(((3S,5S)-1-(2,2-diphenylethyl)-3-(3-guanidinopropyl)-2-oxo-1,4-diazepan-5-yl)methyl)acetamide] | < 10000 nM
N=C(N)NCCC[C@@H]1N[C@H](CNC(=O)c2ccc(Br)cc2)CCN(CC(c2ccccc2)c2ccccc2)C1=O [Compound 164, 4-bromo-N-(((3S,5S)-1-(2,2-diphenylethyl)-3-(3-guanidinopropyl)-2-oxo-1,4-diazepan-5-yl)methyl)benzamide] | < 1000 nM
COc1cccc(/C=C/C(=O)NC[C@@H]2CCN(CC(c3ccccc3)c3ccccc3)C(=O)[C@H](CCCNC(=N)N)N2)c1 [Compound 180, (E)-N-(((3S,5S)-1-(2,2-diphenylethyl)-3-(3-guanidinopropyl)-2-oxo-1,4-diazepan-5-yl)methyl)-3-(3-methoxyphenyl)acrylamide] | < 1000 nM
CC(C)NCCC[C@@H]1N[C@H](CNC(=O)c2ccc3ccccc3c2)CCN(CC(c2ccccc2)c2ccccc2)C1=O [Compound 65, N-(((3S,5S)-1-(2,2-diphenylethyl)-3-(3-(isopropylamino)propyl)-2-oxo-1,4-diazepan-5-yl)methyl)-2-naphthamide] | < 100 nM
CN1[C@H](CNC(=O)c2ccc3cc(Br)ccc3c2)CCN(CC(c2ccccc2)c2ccccc2)C(=O)[C@@H]1CCCN [Compound 62, N-(((3S,5S)-3-(3-aminopropyl)-1-(2,2-diphenylethyl)-4-methyl-2-oxo-1,4-diazepan-5-yl)methyl)-6-bromo-2-naphthamide] | < 1000 nM
N=C(N)NCCC[C@@H]1N[C@H](CNC(=O)c2ccccc2)CCN(CC(c2ccccc2)c2ccccc2)C1=O [Compound 115, N-(((3S,5S)-1-(2,2-diphenylethyl)-3-(3-guanidinopropyl)-2-oxo-1,4-diazepan-5-yl)methyl)benzamide] | < 1000 nM
NCC[C@@H]1N[C@H](CNC(=O)c2ccc3ccccc3c2)CCN(Cc2cc(Cl)cc(Cl)c2)C1=O [Compound 49, (3S,5S)-3-(2-aminoethyl)-5-(2-naphthoylaminomethyl)-1-(3,5-dichlorobenzyl)-1,4-diazepan-2-one] | < 1000 nM
N=C(N)NCCC[C@@H]1N[C@H](CNC(=O)c2ccc3sccc3c2)CCN(CC(c2ccccc2)c2ccccc2)C1=O [Compound 185, N-(((3S,5S)-1-(2,2-diphenylethyl)-3-(3-guanidinopropyl)-2-oxo-1,4-diazepan-5-yl)methyl)benzo[b]thiophene-5-carboxamide] | < 100 nM
N=C(N)NCCC[C@@H]1N[C@H](CNC(=O)COc2ccc(Cl)cc2Cl)CCN(CC(c2ccccc2)c2ccccc2)C1=O [Compound 176, 2-(2,4-dichlorophenoxy)-N-(((3S,5S)-1-(2,2-diphenylethyl)-3-(3-guanidinopropyl)-2-oxo-1,4-diazepan-5-yl)methyl)acetamide] | < 100 nM
N=C(N)NCCC[C@@H]1N[C@H](CNC(=O)C23CC4CC(CC(C4)C2)C3)CCN(CC(c2ccccc2)c2ccccc2)C1=O [Compound 161, N-(((3S,5S)-1-(2,2-diphenylethyl)-3-(3-guanidinopropyl)-2-oxo-1,4-diazepan-5-yl)methyl)-adamantane-1-carboxamide] | < 10000 nM
N=C(N)NCCC[C@@H]1N[C@H](CNC(=O)c2cnc3ccccc3n2)CCN(CC(c2ccccc2)c2ccccc2)C1=O [Compound 113, N-(((3S,5S)-1-(2,2-diphenylethyl)-3-(3-guanidinopropyl)-2-oxo-1,4-diazepan-5-yl)methyl)quinoxaline-2-carboxamide] | < 1000 nM

Same assay, conditions: hMC5R binding assay as in Example 102; compounds tested as trifluoroacetate or hydrochloride salts, or as free base

Structure (SMILES) | IC50
CC[C@H](CN1CC[C@H](CNC(=O)c2ccc3cc(Cl)ccc3c2)N[C@H](CCN2CCCCC2)C1=O)c1ccccc1 [Compound 585, 6-chloro-N-(((3R,5R)-2-oxo-1-((S)-2-phenylbutyl)-3-(2-(piperidin-1-yl)ethyl)-1,4-diazepan-5-yl)methyl)-2-naphthamide] | < 10000 nM
